Tests used:
[1] = test system: MCF-7 cells expressing AR; assay: MCF-7-AR cell viability (SRB); format: cell-based; details: 6 days
Method: After 6 days of treatment, cells were harvested, and the number of cells was counted. […] Medium was changed after 3 days and re-treated. Cells were fixed after 6 days of treatment and the cell viability was measured by SRB assay. […] Medium was changed, and the cells were re-treated on days 4 and 7. Medium was collected, pooled from triplicates, and stored in −80° C. After 10 days of treatment, cells were fixed, and cell viability was measured using SRB. MCF-7 cells stably transfected with GFP (MCF-7-GFP) were plated in growth medium. Twenty-four hours after plating, cells were fed with the conditioned medium obtained from patient-derived fibroblasts as indicated above. Cells were fed for 10 days with conditioned medium, with medium changed on days 4 and 7. After 10 days of treatment, cells were fixed, and the viability was measured by SRB assay. […] AR-positive, but ER-negative HCI-9 PDX was surgically implanted as 1 mm^3 fragments under the mammary fat pad in NSG mice (n=8-10/group). […] Tumor volume was measured thrice weekly. […] ER-α from HCI-13 was cloned into pCR3.1 vector. […] Values are expressed as average±S.E. from n=3-4/data point.
(§1) Cells were plated at varying densities in growth medium in 96 well plates. Cells were treated as indicated in the figures and viability measured using sulforhodamine B (SRB) or the number of cells counted using Coulter counter.

HCI-7 PDX = assay: HCI-7 (HCI-007) patient-derived xenograft in NSG mice; format: in vivo
Method: HCI-007 tumor pieces (1 mm^3) were implanted surgically (one per mouse) under the skin on the flanks of NSG mice. Simultaneously, 17β-estradiol pellet (Innovative Research of America) was implanted surgically under the skin of each mouse. Tumors were allowed to grow and reach approximately 100 mm^3 volume (1*W*W*0.526). […] Tumor volume was measured weekly and represented as % change in tumor volume (FIG. 32). Mice were sacrificed and tumors stored for further analysis.
All animal protocols were approved by The University of Tennessee Health Science Center (UTHSC) Institutional Animal Care and Use Research Committee. Xenograft experiments were performed as previously published (Narayanan et al. (2014) PLoS One 9, e103202). Briefly, 3 million MCF-7 cells were suspended in 0.05 ml MEM+10% FBS and 0.05 ml Matrigel/nude mouse and were injected subcutaneously. Once the tumor size reached 100-200 mm^3, the animals were randomized and treated orally with the indicated drugs formulated in DMSO:PEG-300 (15:85). HCI-7, HCI-9, and HCI-13 PDXs were gifts kindly donated by Dr. Alana Welm (Huntsman Cancer Institute, Salt Lake City, Utah). HCI PDX tumor fragments (1 mm^3) were surgically implanted under the mammary fat pad in female NOD SCID Gamma (NSG) mice. Tumor volume was measured twice weekly for MCF-7 xenograft and once or twice weekly for HCI PDXs. At the end of the study, animals were sacrificed and tumors were excised, weighed, and stored for various analyses.
From the several PDXs available, three AR-positive PDXs were identified, based on gene expression profile. […] The enzalutamide dose was selected based on previous published experiments (Park et al. (2016) Cancer Invest 34, 517-520; Pollock et al. (2016) Nat Chem Biol 12, 795-801) as well as from internal experiments conducted in prostate cancer xenografts and in Hershberger studies.

HCI-13 tumor fragments = assay: HCI-13 ex vivo sponge culture, real time PCR; format: cell-based; details: 3 days
Method: HCI-13 tumors grown in female mice were allowed to reach 500-1000 mm^3 before the animals were sacrificed and the tumors were excised to be used for sponge culture. Patient specimens frozen in liquid nitrogen in freezing medium were used for sponge culture. […] Tumors were sliced into small pieces (˜1 mm^3) and incubated on pre-soaked gelatin sponges (5 fragments/sponge) in 12 well plates containing 1.5 mL medium (MEM+10% FBS+2 mM L-glutamine+10 μg/mL insulin+10 μg/mL hydrocortisone+penicillin:streptomycin). The cultures were performed in triplicates for HCI-13 and singly for patient specimens. Pooled samples (n=5/sponge) from each sponge constituted one sample. Tissues were harvested after 3 days of treatment, RNA extracted, and expression of various genes measured. Although the same procedure was adopted for specimens obtained from breast cancer patients, the specimens were cultured singly (n=5/sponge=one sample) and not in triplicates as performed for HCI-13.

[2] = test system: ZR-75-1 breast cancer cells; assay: ZR-75-1 cell proliferation (cell count); format: cell-based; details: 6 days, dose response
Method: as §1
Although a few previous reports have shown that MCF-7 cells express AR and respond to AR ligands (Buchanan et al. (2005) Cancer Res 65, 8487-8496), the MCF-7 cell line clone in the study lacks or minimally expresses AR, which is in concordance with other reports (De Amicis et al. (2010) Breast Cancer Res Treat 121, 1-11).

[3] = Completed and ongoing clinical studies, tolerability; format: in vivo, human; details: single doses up to 100 mg, multiple doses up to 30 mg once daily up to 14 days
Text: These include: 1. Protocol G100401, a Phase 1 single ascending dose study in 96 healthy, young, male volunteers; 2. Protocol G100402, a Phase 1 multiple ascending dose study in 50 healthy, young, male volunteers, and 23 elderly male volunteers with truncal obesity; 3. Protocol G100503, a Phase 1 single dose pharmacokinetic study to assess the effect of a dosage regimen that simulates a sustained release formulation to an immediate release formulation in 18 healthy, young male volunteers and 18 postmenopausal women; 4. Protocol G100506, a Phase 1 single dose pharmacokinetic study to assess the relative bioavailability of a 3 mg hard shell capsule formulation to be used during continued clinical development and to assess the effect of food on the pharmacokinetics of the 3 mg softgel formulation in 27 healthy, young, male volunteers; 5. Protocol 006, a Phase 1 single dose and multiple dose pharmacokinetic study in 24 postmenopausal, Japanese women; 6. Protocol G200501, a Phase 2 study in 60 postmenopausal women and 60 elderly men to assess lean body mass and physical function; 7. Protocol 003, a Phase 1b study in 44 postmenopausal women; 8. Protocol G200502, a Phase 2b study in 159 men and postmenopausal women with cancer to assess lean body mass and physical function; 9.

MCF-7-AR tumors = assay: Phospho MAPK array of MCF-7-AR tumors; set-up: species or system mice; details: mouse, in vivo
Method: Protein from MCF-7-AR tumors that were treated with vehicle or compound of Formula VIII were extracted and incubated with phospho MAPK array to determine the effect of compound of Formula VIII on phosphorylation of various kinases.

Structure (SMILES) | proliferation / cell viability [1] | tumor growth (HCI-7 PDX; 10 mg/kg Formula IX, 30 mg/kg enzalutamide, orally) | tumor weights at end of study (HCI-7 PDX; 10 mg/kg orally) | tumor growth (% change in tumor volume) (HCI-7 PDX; Formula IX 10 mg/kg, enzalutamide 20 mg/kg, orally, vs vehicle) | inhibition of ER-induced pS2 and PR gene expression (HCI-13 tumor fragments; 10 nM DHT, 1 μM Formula IX, 100 nM fulvestrant) | AR-target gene FKBP5 expression (HCI-13 tumor fragments) | MKI67 expression (HCI-13 tumor fragments) | proliferation [2] | tolerability [3] | JNK phosphorylation (MCF-7-AR tumors)
C[C@](O)(COc1ccc(C#N)cc1)C(=O)Nc1ccc(C#N)c(C(F)(F)F)c1 [Formula IX, (S)—N-(4-Cyano-3-(trifluoromethyl)phenyl)-3-(4-cyanophenoxy)-2-hydroxy-2-methylpropanamide] | inhibited proliferation | inhibited significantly | significantly smaller | grew slowly | effective | induced | inhibited | significantly reduced dose dependently | generally well-tolerated | –
C[C@](O)(COc1ccc(C#N)cc1)C(=O)Nc1ccc(C#N)c(Cl)c1 [Formula VIII, (S)—N-(3-chloro-4-cyanophenyl)-3-(4-cyanophenoxy)-2-hydroxy-2-methylpropanamide] | – | – | – | – | – | – | – | – | – | upregulated
